Reference: US10596082B2, “Oral care compositions and methods of use” (Colgate-Palmolive Company, priority 2017, dated 2020)

Tested on: microorganisms
Test: Bactericidal testing of toothpaste final base made with contaminated PCC slurry (plate count)
Conditions: final toothpaste base with previously contaminated PCC slurry, plated on MLA, 30° C.
Method: In a stainless steel bucket, water and humectant was first added and stirred using an overhead stirrer (EUROSTAR 200, IKA, North Carolina, USA) equipped with a cowles disperser. Mixing was started at 500 rpm for 1 minute. Gum and salts (buffering agents, sweetener, fluoride) were added next and the resulting solution was mixed at 1,000 rpm for 20 minutes to obtain a gel phase.
A fraction of the gel phase sample was transferred to a new stainless steel bucket. Using an overhead stirrer (EUROSTAR 200, IKA) equipped with a 4-bladed propeller stirrer, mixing was performed at 750 rpm for 1 minute. Next, to the mixture was added water, PCC slurry (previously contaminated for the study purpose), surfactant, and other ingredients (benzyl alcohol/caprylyl glycol or phenethyl alcohol/caprylyl glycol) and mixed for 15 minutes to obtain the final base.
Sample preparation was made by mixing 10 grams of the final base (see Example 1) with 90 mL of diluent (TAT broth (catalog #298410, BD) supplemented with 0.3% NaCl and 4% Tween) to achieve a 1:10 dilution. Serial dilutions of 10^−1 to 10^−6 were made in neutralizing broth (TAT supplemented with 0.3% NaCl), allowed to incubate for 0, 2, 4, 6, 24 and 48 hours, and plated in 15-20 mL of melted Modified Letheen Agar (MLA). Plates were swirled to allow complete dispersion and allowed to solidify. Solidified plates were then inverted and incubated at 30° C. for at least 48 hours. Colonies were counted using a Quebec colony counter (Phoenix Luferco, Brazil). Table 2 presents the study results, showing numbers of microorganisms per gram of product (CFU/) at different time points.

Structure (SMILES)	numbers of microorganisms per gram of product, 0 hr	numbers of microorganisms per gram of product, 2 hr	numbers of microorganisms per gram of product, 4 hr	numbers of microorganisms per gram of product, 6 hr	numbers of microorganisms per gram of product, 24 hr	numbers of microorganisms per gram of product, 48 hr [CFU/]
OCc1ccccc1 [Benzyl alcohol (0.30%), Benzyl alcohol]	13,300 CFU/	18,250 CFU/	13,000 CFU/	8,000 CFU/	3,650 CFU/	125
CCCCCCC(O)CO (stereo not drawn) [Caprylyl glycol (0.20%), Caprylyl glycol]	13,300 CFU/	14,000 CFU/	1,200 CFU/	2,100 CFU/	435 CFU/	80
